Experimental data published in US4004023A, “1-(4-Butylphenyl)-1-(3,4-methylenedioxyphenyl)-2-nitroalkanes and synergistic insecticidal mixtures therewith” (Mobil Oil Corporation, priority 1975, dated 1977).

How the values were obtained:
Assay type in all cases: in vivo
[1] = test system: Southern armyworm; assay: whole plant or invertebrate; details: Spodoptera eridania, in Phaseolus lunatus, third or fourth instar larvae, 48 to 72 hour, read-out: percent kill, Southern armyworm (SA)
Procedure: (§1) The new 1-(4-butylphenyl)-1-(3,4-methylenedioxyphenyl)-2-nitroalkanes of this invention (Examples 4-6) were evaluated in standard greenhouse insecticide tests using housefly (HF), Mexican bean beetle (MB), Southern armyworm (SA) and yellow fever mosquito (YF). The rates of application were 500 and 100 ppm of active ingredient except in the mosquito test where test rates were 10 and 1 ppm. The results as set forth in Table I below indicate the percent kill of each insect species.
(§2) Southern armyworm and Mexican bean beetle; lima bean leaves of uniform size were momentarily dipped in a water-acetone solution of the test compound and the treated leaves were then placed on moistened filter paper in 9 cm. petri dishes and allowed to air dry. When dry, five, third or fourth instar larvae were introduced and encouraged to feed on the treated foliage by means of confinement. The dishes were closed and held for observation of mortality and feeding during a 48 to 72 hour period.

[2] = test system: Mexican bean beetle; assay: whole plant or invertebrate; details: Epilachna varivestis, third or fourth instar larvae, 48 to 72 hour, read-out: percent kill, Mexican bean beetle (MB)
Procedure: as §1, §2

[3] = test system: yellow fever mosquito; assay: whole plant or invertebrate; details: Aedes aegypti, fourth stage larvae, 24 hour exposure, read-out: percent kill, yellow fever mosquito (YF); for mortality at 1 ppm: 1 ppm (line printed as 100 ppm; footnote: 10 and 1 ppm for YF); for mortality at 10 ppm: 10 ppm (line printed as 500 ppm; footnote: 10 and 1 ppm for YF)
Procedure: as §1
Yellow fever mosquito; fourth stage larvae were exposed to a solution of the active compound in water. The active material was initially dissolved in acetone and then added to the water. The compounds were screened at 10 ppm and at 1 ppm using approximately 10 larvae per 100 ml of treated water. Each treatment was replicated twice. Mortality was determined after 24 hour exposure.

[4] = test system: housefly; assay: whole plant or invertebrate; details: Musca domestica, adult houseflies, mortality at 24 hours, read-out: percent kill, housefly (HF)
Procedure: as §1
(§3) Housefly; 1 milliliter of an aqueous solution or suspension of the test compound was pipeted into a 9 cm. petri dish containing filter paper and 0.1 gram of granular sugar. Ten adult houseflies were admitted and the dish closed. Observations were made periodically for knockdown and at 24 hours for mortality.

[5] = test system: housefly; assay: insecticide synergist test of mixtures on housefly; details: 25 ppm (0.0025 wt. %) total of both active ingredients; numbers in parentheses are % in mixture; 1440 min
Procedure: as §3
The new 1-(4-butylphenyl)-1-(3,4-methylenedioxyphenyl)-2-nitroalkanes of this invention were evaluated as insecticide synergists in standard insecticide tests. In general the compounds of this invention were combined with the insecticide -- 1-(p-tert-butylphenyl)-1-(p-ethoxyphenyl)-2-nitrobutane (pending application Serial No. 410,935, filed October 29, 1973) designated as Example 8 above -- in varying proportions starting from, for example, 90% Example 4, 5 or 6 plus 10% Example 8 and decreasing to, for example 10% Example 4, 5 or 6, plus 90% Example 8. In all cases, the total sum of active ingredients (i.e. Examples 4, 5 or 6 plus 8) equaled 25 ppm. These mixtures were tested on housefly following the standard greenhouse test procedure, outlined above. The results as set forth below indicate the percent kill (or percent control) of the insect species: […]

| Compound | mortality at 100 ppm [1] [%] | mortality at 500 ppm [1] [%] | mortality at 100 ppm [2] [%] | mortality at 500 ppm [2] [%] | mortality at 1 ppm [3] [%] | mortality at 10 ppm [3] [%] | mortality at 100 ppm [4] [%] | mortality at 500 ppm [4] [%] | % CONTROL (percent kill or percent control), housefly [5] [%] |
| --- | --- | --- | --- | --- | --- | --- | --- | --- | --- |
| CC(C(c1ccc(C(C)(C)C)cc1)c1ccc2c(c1)OCO2)[N+](=O)[O-] (centres unmarked) [Example 5, 1-(4-tert-Butylphenyl)-1-(3,4-methylenedioxyphenyl)-2-nitropropane] | 80 | 100 | 100 | 100 | 100 | 100 | 10 | 100 | – |
| CCC(C)c1ccc(C(c2ccc3c(c2)OCO3)C(CC)[N+](=O)[O-])cc1 (centres unmarked) [Example 6, 1-(4-sec-Butylphenyl)-1-(3,4-methylenedioxyphenyl)-2-nitrobutane] | 30 | 100 | 90 | 100 | 100 | 100 | 100 | 100 | 0 |
| CCC(C(c1ccc(C(C)(C)C)cc1)c1ccc2c(c1)OCO2)[N+](=O)[O-] (centres unmarked) [Example 4, 1-(4-tert-Butylphenyl)-1-(3,4-methylenedioxyphenyl)-2-nitrobutane] | 100 | 100 | 100 | 100 | 40 | 100 | 20 | 100 | – |
| CCOc1ccc(C(c2ccc(C(C)(C)C)cc2)C(CC)[N+](=O)[O-])cc1 (centres unmarked) [Example 8, 1-(p-tert-Butylphenyl)-1-(p-ethoxyphenyl)-2-nitrobutane] | – | – | – | – | – | – | – | – | 40 |
